Source: US12281122B1, “PI3K inhibitors” (Cogent Biosciences, Inc., priority 2023, dated 2025)

What was measured:
[1] = test system: SKBR3 (PI3Kα-Wild Type) cell line; assay: HTRF phospho-AKT(S473) cell assay in SKBR3 cells; format: cell-based, human; conditions: Homo sapiens, SK-BR-3; HTRF phospho-AKT(S473), SKBR3 (PI3Kα-Wild Type) cells, 2 hours compound incubation, PDGF-BB stimulated
In short: (§1)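 pAKT(S473) in lysates read by HTRF after a 2 h, 37 °C compound exposure (12-point 1:3 series, max 0.5% DMSO). SKBR3 (wild type, top 10 μM) received 70 ng/ml PDGF-BB during the final 15 min; T47D (H1047R, top 5 μM) was unstimulated. IC50 values derived from the dose-response.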

[2] = test system: T47D (PI3Kα-H1047R) cell line; assay: HTRF phospho-AKT(S473) cell assay in T47D cells; format: cell-based, human; conditions: Homo sapiens; HTRF phospho-AKT(S473), T47D (PI3Kα-H1047R) cells, 2 hours compound incubation
In short: as §1

| SMILES | IC50 [1] [nM] | IC50 [2] [nM] |
| --- | --- | --- |
| Cc1cc([C@@H](C)Nc2ccc(Cl)nc2C(=O)NS(C)(=O)=O)c2nc(N3C[C@H]4C[C@@H]3CN4c3ncc(Cl)cn3)n(C)c(=O)c2c1 [Compound 666, 6-chloro-3-(((R)-1-(2-((1R,4R)-5-(5-chloropyrimidin-2-yl)-2,5-diazabicyclo [2.2.1]heptan-2-yl)-3,6-dimethyl-4-oxo-3,4-dihydroquinazolin-8-yl)ethyl)amino)-N-(methylsulfonyl) picolinamide] | ≥ 5000 | 250 to 500 |
| Cc1cc([C@@H](C)Nc2ccc(Cl)nc2C(=O)NS(C)(=O)=O)c2nc(N3C[C@@H]4C[C@H]3CN4c3ncc(Cl)cn3)n(C)c(=O)c2c1 [Compound 667, 6-chloro-3-(((R)-1-(2-((1S,4S)-5-(5-chloropyrimidin-2-yl)-2,5-diazabicyclo [2.2.1]heptan-2-yl)-3,6-dimethyl-4-oxo-3,4-dihydroquinazolin-8-yl)ethyl)amino)-N-(methylsulfonyl) picolinamide] | ≥ 5000 | 500 to 1000 |
| Cc1cc([C@@H](C)Nc2ccc(Cl)nc2C(=O)NS(C)(=O)=O)c2nc(N3C[C@H]4C[C@@H]3CN4c3ncc(F)cn3)n(C)c(=O)c2c1 [Compound 668, 6-chloro-3-(((R)-1-(2-((1R,4R)-5-(5-fluoropyrimidin-2-yl)-2,5-diazabicyclo [2.2.1]heptan-2-yl)-3,6-dimethyl-4-oxo-3,4-dihydroquinazolin-8-yl)ethyl)amino)-N-(methylsulfonyl) picolinamide] | ≥ 5000 | 250 to 500 |
| Cc1cc([C@@H](C)Nc2ccc(Cl)nc2C(=O)NS(C)(=O)=O)c2nc(N3C[C@@H]4C[C@H]3CN4c3ncc(F)cn3)n(C)c(=O)c2c1 [Compound 669, 6-chloro-3-(((R)-1-(2-((1S,4S)-5-(5-fluoropyrimidin-2-yl)-2,5-diazabicyclo [2.2.1]heptan-2-yl)-3,6-dimethyl-4-oxo-3,4-dihydroquinazolin-8-yl)ethyl)amino)-N-(methylsulfonyl) picolinamide] | ≥ 5000 | 250 to 500 |
| Cc1cc([C@@H](C)Nc2ccc(Cl)nc2C(=O)NS(C)(=O)=O)c2nc(N3CC[C@@H](Oc4cnc(C)cn4)C3)n(C)c(=O)c2c1 [Compound 672, 6-chloro-3-(((R)-1-(3,6-dimethyl-2-((R)-3-((5-methylpyrazin-2-yl)oxy)pyrrolidin-1-yl)-4-oxo-3,4-dihydroquinazolin-8-yl)ethyl)amino)-N-(methylsulfonyl) picolinamide] | 1000 to 5000 | < 250 |
| Cc1cc([C@@H](C)Nc2ccc(Cl)nc2C(=O)NS(C)(=O)=O)c2nc(N3CCC4(CCc5cn(C)nc54)CC3)n(C)c(=O)c2c1 [Compound 673, (R)-6-chloro-3-((1-(3,6-dimethyl-2-(2-methyl-4,5-dihydro-2H-spiro [cyclopenta[c]pyrazole-6,4′-piperidin]-1′-yl)-4-oxo-3,4-dihydroquinazolin-8-yl)ethyl)amino)-N-(methylsulfonyl) picolinamide] | ≥ 5000 | 250 to 500 |
| Cc1cc([C@@H](C)Nc2ccc(Cl)nc2C(=O)NS(C)(=O)=O)c2nc(N3Cc4cccc(-c5cncn5C)c4C3)n(C)c(=O)c2c1 [Compound 674, (R)-6-chloro-3-((1-(3,6-dimethyl-2-(4-(1-methyl-1H-imidazol-5-yl)isoindolin-2-yl)-4-oxo-3,4-dihydroquinazolin-8-yl)ethyl)amino)-N-(methylsulfonyl) picolinamide] | ≥ 5000 | 250 to 500 |
| Cc1cc([C@@H](C)Nc2ccc(Cl)nc2C(=O)NS(C)(=O)=O)c2nc(N3CCC(c4nn(C)c5ccccc45)CC3)n(C)c(=O)c2c1 [Compound 675, (R)-6-chloro-3-((1-(3,6-dimethyl-2-(4-(1-methyl-1H-indazol-3-yl)piperidin-1-yl)-4-oxo-3,4-dihydroquinazolin-8-yl)ethyl)amino)-N-(methylsulfonyl) picolinamide] | ≥ 5000 | 250 to 500 |
| Cc1cc([C@@H](C)Nc2ccc(Cl)nc2C(=O)NS(C)(=O)=O)c2nc(N3CCC(n4ccccc4=O)CC3)n(C)c(=O)c2c1 [Compound 677, (R)-6-chloro-3-((1-(3,6-dimethyl-4-oxo-2-(4-(2-oxopyridin-1(2H)-yl)piperidin-1-yl)-3,4-dihydroquinazolin-8-yl)ethyl)amino)-N-(methylsulfonyl) picolinamide] | ≥ 5000 | 250 to 500 |
| Cc1cc([C@@H](C)Nc2ccc(Cl)nc2C(=O)NS(C)(=O)=O)c2nc(N3CCC(c4cccc5c4cnn5C)CC3)n(C)c(=O)c2c1 [Compound 678, (R)-6-chloro-3-((1-(3,6-dimethyl-2-(4-(1-methyl-1H-indazol-4-yl)piperidin-1-yl)-4-oxo-3,4-dihydroquinazolin-8-yl)ethyl)amino)-N-(methylsulfonyl) picolinamide] | ≥ 5000 | 250 to 500 |
| Cc1cc([C@@H](C)Nc2ccc(Cl)nc2C(=O)NS(C)(=O)=O)c2nc(N3CCC(c4ccc(F)cn4)C3)n(C)c(=O)c2c1 (stereo partly drawn) [Compound 679, 6-chloro-3-(((1R)-1-(2-(3-(5-fluoropyridin-2-yl)pyrrolidin-1-yl)-3,6-dimethyl-4-oxo-3,4-dihydroquinazolin-8-yl)ethyl)amino)-N-(methylsulfonyl) picolinamide] | 1000 to 5000 | 250 to 500 |
| Cc1cc([C@@H](C)Nc2ccc(Cl)nc2C(=O)NS(C)(=O)=O)c2nc(N3CCN4C[C@H](n5cc(C)cn5)C[C@H]4C3)n(C)c(=O)c2c1 [Compound 680, 6-chloro-3-(((R)-1-(3,6-dimethyl-2-((7R,8aS)-7-(4-methyl-1H-pyrazol-1-yl)hexahydropyrrolo[1,2-a]pyrazin-2(1H)-yl)-4-oxo-3,4-dihydroquinazolin-8-yl)ethyl)amino)-N-(methylsulfonyl) picolinamide] | ≥ 5000 | 250 to 500 |
| Cc1cc([C@@H](C)Nc2ccc(Cl)nc2C(=O)NS(C)(=O)=O)c2nc(N3CCC(n4cc(C(F)(F)F)cn4)CC3)n(C)c(=O)c2c1 [Compound 681, (R)-6-chloro-3-((1-(3,6-dimethyl-4-oxo-2-(4-(4-(trifluoromethyl)-1H-pyrazol-1-yl)piperidin-1-yl)-3,4-dihydroquinazolin-8-yl)ethyl)amino)-N-(methylsulfonyl) picolinamide] | ≥ 5000 | 250 to 500 |
| Cc1cc([C@@H](C)Nc2ccc(Cl)nc2C(=O)NS(C)(=O)=O)c2nc(N3CCC4(CCc5c[nH]nc54)CC3)n(C)c(=O)c2c1 [Compound 682, (R)-6-chloro-3-((1-(2-(4,5-dihydro-2H-spiro [cyclopenta[c]pyrazole-6,4′-piperidin]-1′-yl)-3,6-dimethyl-4-oxo-3,4-dihydroquinazolin-8-yl)ethyl)amino)-N-(methylsulfonyl) picolinamide] | ≥ 5000 | 250 to 500 |
| Cc1cc([C@@H](C)Nc2ccc(Cl)nc2C(=O)NS(C)(=O)=O)c2nc(N3Cc4cn(CC5CC5)nc4C3)n(C)c(=O)c2c1 [Compound 683, (R)-6-chloro-3-((1-(2-(2-(cyclopropylmethyl)-2,6-dihydropyrrolo[3,4-c]pyrazol-5(4H)-yl)-3,6-dimethyl-4-oxo-3,4-dihydroquinazolin-8-yl)ethyl)amino)-N-(methylsulfonyl) picolinamide] | 1000 to 5000 | 250 to 500 |
| Cc1cc([C@@H](C)Nc2ccc(Cl)nc2C(=O)NS(C)(=O)=O)c2nc(N3Cc4cn(Cc5ccccc5)nc4C3)n(C)c(=O)c2c1 [Compound 684, (R)-3-((1-(2-(2-benzyl-2,6-dihydropyrrolo[3,4-c]pyrazol-5(4H)-yl)-3,6-dimethyl-4-oxo-3,4-dihydroquinazolin-8-yl)ethyl)amino)-6-chloro-N-(methylsulfonyl) picolinamide] | 1000 to 5000 | < 250 |
| Cc1cc([C@@H](C)Nc2ccc(Cl)nc2C(=O)NS(C)(=O)=O)c2nc(N3CCC(n4ncc5ccccc54)CC3)n(C)c(=O)c2c1 [Compound 685, (R)-3-((1-(2-(4-(1H-indazol-1-yl)piperidin-1-yl)-3,6-dimethyl-4-oxo-3,4-dihydroquinazolin-8-yl)ethyl)amino)-6-chloro-N-(methylsulfonyl) picolinamide] | ≥ 5000 | 250 to 500 |
| Cc1cc([C@@H](C)Nc2ccc(Cl)nc2C(=O)NS(C)(=O)=O)c2nc(N3CCC(n4cc(C#N)cn4)CC3)n(C)c(=O)c2c1 [Compound 686, (R)-6-chloro-3-((1-(2-(4-(4-cyano-1H-pyrazol-1-yl)piperidin-1-yl)-3,6-dimethyl-4-oxo-3,4-dihydroquinazolin-8-yl)ethyl)amino)-N-(methylsulfonyl) picolinamide] | 250 to 500 | < 250 |
| Cc1cc([C@@H](C)Nc2ccc(Cl)nc2C(=O)NS(C)(=O)=O)c2nc(N3CC[C@@H](c4ccccc4)C3)n(C)c(=O)c2c1 [Compound 687, 6-chloro-3-(((R)-1-(3,6-dimethyl-4-oxo-2-((S)-3-phenylpyrrolidin-1-yl)-3,4-dihydroquinazolin-8-yl)ethyl)amino)-N-(methylsulfonyl) picolinamide] | ≥ 5000 | 250 to 500 |
| Cc1cc([C@@H](C)Nc2ccc(Cl)nc2C(=O)NS(C)(=O)=O)c2nc(N3Cc4cn(-c5ccccn5)nc4C3)n(C)c(=O)c2c1 [Compound 688, (R)-6-chloro-3-((1-(3,6-dimethyl-4-oxo-2-(2-(pyridin-2-yl)-2,6-dihydropyrrolo[3,4-c]pyrazol-5(4H)-yl)-3,4-dihydroquinazolin-8-yl)ethyl)amino)-N-(methylsulfonyl) picolinamide] | ≥ 5000 | 250 to 500 |
| Cc1cc([C@@H](C)Nc2ccc(Cl)nc2C(=O)NS(C)(=O)=O)c2nc(N3CCO[C@H](c4ccccc4)C3)n(C)c(=O)c2c1 [Compound 689, 6-chloro-3-(((R)-1-(3,6-dimethyl-4-oxo-2-((R)-2-phenylmorpholino)-3,4-dihydroquinazolin-8-yl)ethyl)amino)-N-(methylsulfonyl) picolinamide] | 1000 to 5000 | < 250 |
